# Like-named read-outs stand apart in the source and are kept apart here.
# What was measured:
# S. aureus ATCC 25923 = test: NCCLS broth microdilution MIC and MBC (Example 10); format: cell-based, Staphylococcus aureus; details: Example 10
# Procedure: (§1) Strains of E. coli (ATCC 11229), D. aeruginosa (ATCC 15442), S. aureus (ATCC 25923), S. epidermidis (ATCC 12228), S. pyogenes (ATCC 19615), C. albicans (ATCC 10231), and T. rubrum (ATCC 28188) were used as “challenge microorganisms” in this study. Strains were removed from frozen stock and subcultured twice on blood agar to ensure that the strains had optimal growth and metabolic status before testing.
# (§2) Hibiclens (industry comparator) and ciprofloxacin were added to the bacterial panel. Amphotericin B, fluconazole, and Hibiclens were added as comparative agents in the fungal panels.
# (§3) For testing purposes, AMC, AMC components, and Hibiclens were diluted to 50% of the working solution to cover the proposed AMC use dilution of 20%.
# (§4) Microtiter panels were created on the day of MIC testing. A 50 μl aliquot of Mueller-Hinton broth (for bacterial strains) or RPMI 1640 (for fungal strains) was delivered to each well, except those in column one of the microtiter panel. The working solution of AMC and each of its components, and comparative agents were delivered to the designated wells in column one. AMC, components, and comparators were serially diluted across the panel. A 50 μl aliquot of bacterial or fungal suspension was then added to each well on the microtiter panel, using a new pipette tip for each aliquot. Panels were incubated at 35° C. for 16-20 h for the E. coli, P. aeruginosa, and S. aureus strains, 20-24 h for the S. pyogenes strain, and 48 h for the C. albicans strain.
# (§5) The 10 μl samples were plated on to blood agar and incubated at 35° C. for 24 h (E. coli and P. aeruginosa) or 48 h (S. aureus, S. epidermidis, and S. pyogenes). After incubation, colony counts for each panel well plated were recorded.
# (§6) The MIC % is expressed as g/100 ml or ml/100 ml. […] The MBC % is expressed as g/100 ml or ml/100 ml.
# C. albicans ATCC 10231 [1] = test: NCCLS broth microdilution MIC and MFC (Example 10); format: cell-based, Candida albicans
# Procedure: as §1
# (§7) Amphotericin B, fluconazole, and Hibiclens were added as comparative agents in the fungal panels.
# as §3
# (§8) Microtiter panels were created on the day of MIC testing. A 50 μl aliquot of Mueller-Hinton broth (for bacterial strains) or RPMI 1640 (for fungal strains) was delivered to each well, except those in column one of the microtiter panel. The working solution of AMC and each of its components, and comparative agents were delivered to the designated wells in column one. AMC, components, and comparators were serially diluted across the panel. A 50 μl aliquot of bacterial or fungal suspension was then added to each well on the microtiter panel, using a new pipette tip for each aliquot. Panels were incubated at 35° C. for 16-20 h for the E. coli, P. aeruginosa, and S. aureus strains, 20-24 h for the S. pyogenes strain, and 48 h for the C. albicans strain. T. rubrum panels were incubated for 3 to 4 days before MICs were read. […] Fungal MICs (%) were read using an 80% reduction in the growth endpoint relative to the turbidity of the growth control for AMC, its components, and fluconazole. For amphotericin B, the endpoint was read as the complete inhibition of growth.
# (§9) MFCs were determined in a similar manner.
# (§10) The endpoint for amphotericin B was read as complete inhibition of growth. The MIC % is expressed as g/100 ml or ml/100 ml. […] The MFC % is expressed as g/100 ml or ml/100 ml.
# Hepatitis B virus = details: virus in dried human plasma exposed 10 min at 20 deg C. to 70% isopropanol; 9 months observation; cited from earlier work
# T. rubrum ATCC 28188 [2] = test: NCCLS broth microdilution MIC and MFC (Example 11); format: cell-based, Trichophyton rubrum; details: Example 11
# Procedure: (§11) Strains of C. albicans (ATCC 10231) and T. rubrum (ATCC 28188) were tested in this study. Strains were removed from frozen stock and subcultured twice on blood agar to ensure that the strains had optimal growth and metabolic status before testing. Strains were tested by NCCLS broth microdilution (M27-A2, 2002) and challenged with AMC solution and its individual components […] ), and isopropanol. Amphotericin B, fluconazole, terbinafine, and Hibiclens were added as comparator compounds. […] Microtiter panels were created on the day of MIC testing. A 50 μl aliquot of RPMI 1640 was delivered to each well except those in column one of the microtiter panel. The working solution of AMC and each of its components, and comparative agents were delivered to the designated wells in column one; AMC, components, and comparators were serially diluted across the panel. A 50 μl aliquot of fungal suspension was then added to each well on the microtiter panel, using a new pipette tip for each aliquot. […] For amphotericin B, the endpoint was read as the complete inhibition of growth. […] MFCs were performed to determine the concentration at which ≧99% of the starting fungal inoculum was killed. […] After incubation, colony counts for each panel well plated were recorded. […] The endpoint for amphotericin B was read as complete inhibition of growth.
# T. rubrum ATCC 28188 [3] = test: NCCLS broth microdilution MIC and MFC (Example 10); format: cell-based, Trichophyton rubrum; details: Example 10
# Procedure: as §1, §7, §3, §8, §9, §10
# E. coli ATCC 11229 = test: NCCLS broth microdilution MIC and MBC (Example 10); format: cell-based, Escherichia coli; details: % as g/100 ml or ml/100 ml
# Procedure: as §1, §2, §3, §4, §5, §6
# P. aeruginosa ATCC 15442 = test: NCCLS broth microdilution MIC and MBC (Example 10); format: cell-based, Pseudomonas aeruginosa; details: Example 10; % as g/100 ml or ml/100 ml
# Procedure: as §1, §2, §3, §4, §5, §6
# [4] = Acute dermal toxicity, rabbit
# [5] = test system: Trichophyton rubrum (ATCC 28188); test: Time-Kill test (Example 9); format: cell-based
# Procedure: A panel of “challenge microorganisms,” including select bacteria, yeast, and fungi was used to assess the disinfecting properties of test compounds, e.g., AMC (DPT Laboratories). […] The procedure was based on the ASTM procedure entitled, “Standard Test Method for the Assessment of Microbial Activity of Test Materials Using Time-Kill Procedure.”
# A single lot of test material was prepared at various concentrations, along with multiple compounds prepared in various concentrations and combinations. These test materials were tested in duplicate against various bacteria, yeast and fungi. To minimize potential buffer interference and to minimize reduction of antimicrobial activity, the volume of the inoculum added to the test material was maintained at, or below, 1% of the total volume of the test. Samples were removed at various contact times. Serial dilutions were performed, and duplicate aliquots were plated. The plates were then incubated, and the average colony forming units (CFU) recovered per milliliter were determined for each contact time. The contact times for the test compounds with S. aureus, E. coli, P. aeruginosa, and C. albicans were 30 sec, 1 min, and 5 min. The contact times for the test compounds with B. subtilis were 1 and 10 min, 1 h, 2 h, 3 h, and 24 h. The contact times for the test compounds with T. rubrum were 30 sec, 1 min and 10 min. The contact temperature was ambient room temperature (20-21° C.).
# The fungus, T. rubrum, was inoculated onto Emmon's agar (EA) and incubated at 25-30° C. for 10-15 days. The mycelial mats from mature cultures were removed from the surface of at least 5 plates and macerated with sterile saline (SS) in a sterile glass tissue grinder. The suspension was filtered through sterile glass wool to remove the hyphae.
# The density of the conidial suspension was determined by serially diluting the prepared culture in BPDW. Aliquots from selected dilutions were plated on duplicate EA plates. The plates were incubated for 3-5 days at 25-30° C. and then each plate was examined for enumeration.
# The suspension was stored at 2-10° C. for 4 weeks before use. On the day of testing, the suspension was adjusted to yield approximately 5.0×10^8 CFU by dilution with BPDW.
# Compliant with the ASTM procedure cited above, the challenge microorganism was added to the test material by dispensing 99 ml of the test material into two sterile flasks, each containing a stir bar. The reaction flasks were allowed to equilibrate to the test temperature for at least 10 minutes. The flasks were placed in water baths on stir plates and maintained at the test temperature with stirring. A 1 ml aliquot of the prepared inoculum of the challenge microorganism was added to each flask to begin the contact period. At each contact time, 1 ml aliquot samples were removed and added to tubes containing 9 ml PBDW+. Serial 10-fold dilutions of each sample were then prepared in PBDW dilution blanks. Duplicate aliquots from selected dilutions were plated using the appropriate agar.
# Upon completion of all contact periods, all plates were inverted and incubated for the appropriate time and temperature as follows: bacteria and yeast were incubated over 2 nights at 37° C.±2° C., and the fungus was incubated for at least 5 nights at 25-30° C. Following incubation, all plates were removed, the colonies were counted and the CFU recovered per ml at each contact time were calculated.
# S. pyogenes ATCC 19615 = test: NCCLS broth microdilution MIC and MBC (Example 10); format: cell-based, Streptococcus pyogenes; details: Example 10; % as g/100 ml or ml/100 ml
# Procedure: as §1, §2, §3, §4, §5, §6
# [6] = component at 100%; cited from earlier work
# C. albicans ATCC 10231 [7] = test: NCCLS broth microdilution MIC and MFC (Example 11); format: cell-based, Candida albicans
# Procedure: as §11
# [8] = component at 100%; cited from earlier work; remark: listed apart in the source
# [9] = Acute inhalation toxicity, rat
# [10] = test system: S. epidermidis ATCC 12228; test: NCCLS broth microdilution MIC and MBC (Example 10); format: cell-based, Staphylococcus epidermidis
# Procedure: as §1, §2, §3, §4, §5, §6
# [11] = component at 100%; cited from earlier work; remark: listed apart in the source
# [12] = component at 100%; cited from earlier work; remark: listed apart in the source
# [13] = MBC within one doubling dilution of the MIC
# [14] = 80% reduction in growth endpoint
# [15] = MFC within 1 doubling dilution of the MIC
# [16] = Estimated for AMC contained concentrations
compound,measurement,setting,value
CC(C)O [Isopropanol],"MBC, %",S. aureus ATCC 25923; % as g/100 ml or ml/100 ml,24.6%
same,"MIC, %",S. aureus ATCC 25923; % as g/100 ml or ml/100 ml,12.3%
same,bactericidal activity,S. aureus ATCC 25923; [13],bactericidal activity
same,"MIC, %",C. albicans ATCC 10231 [1]; [14],1.5%
same,"MFC, %",C. albicans ATCC 10231 [1]; 99.9% inhibition of growth,1.5%
same,fungicidal activity,C. albicans ATCC 10231 [1]; [15],Fungal activity
same,infection after intravenous inoculation of treated viral material,Hepatitis B virus,did not show signs of infection
same,"MFC, %",T. rubrum ATCC 28188 [2],3.1%
same,"MIC, %",T. rubrum ATCC 28188 [2]; [14],0.2%
same,fungicidal activity,T. rubrum ATCC 28188 [2]; [15],did not demonstrate fungicidal activity
same,"MIC, %",T. rubrum ATCC 28188 [3]; [14],0.2%
same,"MFC, %",T. rubrum ATCC 28188 [3]; 99.9% inhibition of growth,0.4%
same,fungicidal activity,T. rubrum ATCC 28188 [3]; [15],Fungicidal activity was observed
same,"MIC, %",E. coli ATCC 11229,6.1%
same,LD50,"Acute oral toxicity, rat; rat, in vivo, po",> 5000 mg/kg
same,"MBC, %",P. aeruginosa ATCC 15442,12.3%
same,"MIC, %",P. aeruginosa ATCC 15442,3.1%
same,LD50,"[4]; rabbit, in vivo, topical or ocular",25600 mg/kg
same,Relative Kill Potency,[5],0.64
same,reduction of T. rubrum count,"[5]; Study 509-101, in 30 sec",not effective
same,30-Second Log Reduction from Initial T. rubrum CFU Values,"[5]; Table 25, first value column",0.8 Logs
same,"MBC, %",S. pyogenes ATCC 19615,12.3%
same,"MIC, %",S. pyogenes ATCC 19615,12.3%
same,Rat Inhalation LC50,[6],72.6 µg/mL
same,"MFC, %",C. albicans ATCC 10231 [7],1.5%
same,"MIC, %",C. albicans ATCC 10231 [7]; [14],0.8%
same,fungicidal activity,C. albicans ATCC 10231 [7]; [15],Fungicidal activity
same,Rabbit Dermal LD50,[8],"12,800 mg/Kg"
same,LC50,"[9]; rat, in vivo, inhaled",145 µg/mL
same,"MCB, %",[10]; % as g/100 ml or ml/100 ml,24.5%
same,"MIC, %",[10]; % as g/100 ml or ml/100 ml,12.3%
same,bactericidal activity,[10]; [13],bactericidal activity
same,Rat Oral LD50,[11],">5,000 mg/Kg"
"[O-2].[Zn+2] [Zn oxide (100%), Zn oxide]",Rat Oral LD50,"Acute oral toxicity, rat; [16]",">>100,000 mg/Kg"
same,Rat Oral LD50 (*Mouse data),[12],"7,950 mg/Kg"
same,Rabbit Dermal LD50,[4]; [16],">>100,000 mg/Kg"
same,Rat Inhalation LC50,[6],>0.005 µg/mL
same,Rabbit Dermal LD50,[8],">2,000 mg/Kg"
same,Rat Inhalation LC50,[9]; [16],>4.2 µg/mL

# Source: patent US20080057136A1, “Disinfecting Composition and Methods of Making and Using Same” (priority 2003, published 2008)
